These results are taken from patent publication US10155802B2, “Locally-active anticoagulants and anti-inflammatory agents” (priority 2011, dated 2018).

As a reminder, the IC50 is the concentration at which inhibition is half-maximal. Lower therefore signals higher potency. By Ki is commonly meant a measure of affinity in units of concentration, obtained from inhibition or displacement. The low end stands for a stronger hold on the target, the high end for a looser hold on the target.

For experiment [1], the system named is FeCl3-induced venous thrombosis (vena cava). Kind of experiment: FeCl3-induced venous model of thrombosis in rats (thrombus weight). It counts as in vivo. The conditions noted are these: rat, single-bolus injection via tail vein. How it is done: Male Sprague-Dawley rats (250-310 g; Charles River Laboratories, St-Constant, QC, Canada) were acclimated for at least 3 days prior to the start of the study. Animals were housed in microisolator cages and were kept on a 12-hr light/dark cycle with constant temperature and humidity. Food and water were provided ad libitum. Various anti-thrombotic agents and peptides of this invention were dissolved in saline (0.9% sodium chloride) prior to use.
The FeCl3-induced venous model of thrombosis in rats was generated as described by Wang and Xu (Wang 2005) with some modifications (Couture 2011). Briefly, rats were anesthetized with a 2.5% isoflurane/oxygen mixture and placed on a heat source (35-37° C.). The vena cava was then exposed via a midline incision and the region between the renal and iliolumbar veins was isolated. […]
Protein content of the thrombus was also measured according to protocol by Wang (Wang 2005). […] Contents of amino acids and small peptides were measured at OD280 with digestion buffer used as a blank.
Statistical analysis was conducted using GraphPad™ Prism (GraphPad Software Inc., San Diego Calif., USA). Data were analyzed using one-way ANOVA with post-hoc Bonferroni correction for multiple comparisons. The relationship between thrombus weight and thrombus volume was determined by linear regression. […]

For experiment [2], the system named is pooled human plasma. In words: Prothrombin time (PT, thromboplastin) clotting assay. It counts as biochemical. Put shortly: (§1)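 Test compound diluted in HBS (20 mM HEPES, 150 mM NaCl, pH 7.4), mixed with pooled normal human plasma at 37 °C; APTT started with APTT reagent then CaCl2, PT with thromboplastin. APTT value is concentration giving 50% of maximum clotting delay (MCT50); PT IC50 is concentration prolonging clotting time by 50%.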

Experiment [3] deals with pooled human plasma. In words: Activated partial thromboplastin time (APTT) clotting assay. Type of experiment: biochemical. Put shortly: as §1
The target of a further experiment is thrombin (Homo sapiens, UniProt P00734). Kind of experiment: Fibrinogen clotting assay (concentration needed to double the clotting time = IC50). The conditions noted are these: for IC50: IC50 (anti-clotting). It counts as biochemical. Here is the method: The same enzyme kinetic assays were used to determine the inhibitory activities of MH2 and two MH2-derived peptides, MH2-allGS and MH2-GS (Table 4). Clotting assays were carried out to determine the inhibitory activities of the rest of the MH2 peptides by use of the protocols described previously (DiMaio 1990; Taka 2000; Su 2004). The assay employs bovine plasma fibrinogen dissolved at 0.1% in 50 mM Tris-Cl, 100 mM NaCl, 0.1% PEG-8000 at pH 7.6 (i.e. the clotting buffer). In addition to the use of optical densities or ODs (Gill 1989), concentrations of the peptide stock solutions were ranked (and corrected when necessary) by use of quantitative proton NMR spectroscopy (Cavaluzzi 2002). Each assay mixture contained a certain concentration of the peptide, and the reaction was started by the addition of human thrombin to a final concentration of approximately 0.5 nM. Optical absorbance of the assay mixtures was measured at 420 nm using the Spectramax™ plate reader. The onset clotting time was determined as an intersection of the baseline and the tangent line at point of inflection of the clotting curve. The concentration of an MH2 peptide needed to double the clotting time was defined as IC50 (DiMaio 1990) as illustrated in FIG. 4 and summarized in Table 4. The correlation between IC50 values and linker unfolding is similar to that for the BTI series of inhibitors (Table 3). […] (Table 3).

“Also recorded” adds a separate entry of the source.

Consider `CC[C@H](C)[C@H](N)C(=O)N[C@@H](CCCNC(=N)N)C(=O)N[C@@H](Cc1ccccc1)C(=O)N[C@H](C(=O)N[C@@H](CC(=O)O)C(=O)NCC(=O)N[C@@H](CCC(=O)O)C(=O)N[C@@H](Cc1c[nH]c2ccccc12)C(=O)N[C@H](C(=O)N[C@@H](Cc1c[nH]c2ccccc12)C(=O)N[C@@H](CC(=O)O)C(=O)N[C@@H](CC(=O)O)C(=O)N[C@@H](C)C(=O)N[C@H](C(=O)N[C@@H](CCCCN)C(=O)N[C@H](C(=O)N[C@@H](Cc1c[nH]c2ccccc12)C(=O)N[C@H](C(=O)N[C@@H](Cc1c[nH]c2ccccc12)C(=O)N[C@H](C(=O)N[C@@H](CCC(=O)O)C(=O)NCC(=O)N[C@@H](CC(=O)O)C(=O)N[C@@H](Cc1ccccc1)C(=O)N[C@@H](CCC(=O)O)C(=O)N[C@@H](CCC(=O)O)C(=O)N[C@H](C(=O)N1CCC[C@H]1C(=O)N[C@@H](CCC(=O)O)C(=O)N[C@@H](CCC(=O)O)C(=O)N[C@@H](Cc1ccc(O)cc1)C(=O)N[C@@H](CC(C)C)C(=O)N[C@@H](CCC(N)=O)C(=O)O)[C@@H](C)CC)[C@@H](C)O)[C@@H](C)O)[C@@H](C)O)[C@@H](C)O)[C@@H](C)O)[C@@H](C)O` [MH2-wZIP4], for which, in experiment [1], the “reduction of thrombus weight, venous model” value is “particularly efficacious in reducing the weight of local thrombus formation; also recorded: more effective than other anti-thrombotic agents (heparin, argatroban and bivalirudin)”. Also, the “Plateau of prothrombin time dose response” value in the experiment on pooled human plasma [2] (37° C.) is “(Plateau at >900 nM)”. The IC50 in the experiment with pooled human plasma [2] (37° C., concentration that prolongs clotting time by 50%) was 1000 nM; against thrombin (T = 25° C.) it was roughly 250 nM; against thrombin (T = 37° C.) it was 154 nM. Moreover, the “anticoagulant effect in PT versus APTT assays” value with pooled human plasma [2] (in words) is “greatly-reduced anticoagulant potency in both the PT and APTT assays”. The EC50 in the experiment on pooled human plasma [3] (37° C., concentration for 50% of maximum delay in clotting time, read-out: MTC50 (APTT)) worked out at 8000 nM. Further, in the experiment with pooled human plasma [3] (in words), the “dose response in APTT assays” value was “saturable dose response”. The compound also registered a Ki on thrombin of roughly 150 nM.
